Drawing on patent US9040527B2, “Pyrimidinediamine kinase inhibitors” (Rigel Pharmaceuticals, Inc., priority 2008, dated 2015), this text covers IC50 for 16 compounds.

As a reminder, the IC50 is the concentration that inhibits the measured activity by half.

Experiment [1] concerns the target T1, PLK1 (Homo sapiens, UniProt P53350). Briefly: In vitro PLK1 ELISA assay (biochemical). Details: purchased Cell Signalling 7728. The method in brief:
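Commercial PLK1 phosphorylates neutravidin-captured biotinylated CHK2 peptide for 45 min at room temperature in HEPES pH 7.2 with Mg2+/Mn2+/DTT, compounds at 10 μM to 0.005 μM. Phospho-CHK2(T68) antibody plus HRP secondary gives chemiluminescent read-out used for IC50.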
Background: ELISA stands for enzyme-linked immunosorbent assay.

Experiment [2] concerns the target T1, PLK1. As to the kind of experiment: Cellular PLK1 assay in K562 cells overexpressing CDC25C. The class given is cell-based. More on the design: endogenous in cells; host or cells: K562 (human chronic myelogenous leukemia) overexpressing CDC25C, nocodazole-arrested. The conditions noted are these: nocodazole arrested, cdc25c p-Ser198 readout. The procedure: Inhibition of PLK1 was measured by quantifying phosphorylation of PLK1 substrates using chemiluminescent and fluorogenic probes. The protocols for these assays are provided below.
1. Culturing of K562 Cells
Human chronic myelogenous leukemia K562 cells (American Tissue Culture Collection) overexpressing CDC25C, were grown in Growth Medium having the following composition: Iscove Dulbecco's Modified Eagle's Medium (“Iscove DMEM”, Mediatech/Cellgro, Cat. #10-013-CV), 10% Fetal Bovine Serum (“FBS”, SAFC Biosciences, Cat. #12106-500M), and 1% penicillin/streptomycin (“pen-strep”, Mediatech/Cellgro, Cat. #30-002-CI). The cells were plated in 96 well round bottom tissue culture plates (Fisher, Costar* Cell Culture plates, Cat. #07-200-95) at 100,000 cells per 50 μL of Growth Medium per well. Nocodazole (Sigma, Cat. # M1404) was added to the growth media to arrest the cells in the G2 or M phase, at 333 nM concentration. The cells were incubated with nocodazole for 18 hours at 37° C. prior to addition of tested compounds.
2. Treatment of Cells with the Tested Compounds
Solutions of tested compounds in DMSO at different concentrations were prepared using serial dilutions. Each compound was tested at 8 concentration points, 10 μM, 3.3 μM, 1.11 μM, 0.37 μM, 0.12 μM, 0.04 μM, 0.014 μM, 0.005 μM, duplicate replicates.
Two controls were performed: “DMSO alone” control in which nocodazole and DMSO were present but no compounds were added, and “nocodazole alone” control, in which only nocodazole was present, but neither DMSO nor compounds were added.
The solutions of compounds were prepared by diluting 10 mM compound 1:1 in DMSO (5 μL 10 mM compound and 5 μL DMSO), followed by 1:3 serial dilutions of compound in DMSO performed by diluting 3 μL of higher concentration compound solution serially into 6 μL DMSO to give 3-fold dilutions. Next, 3 μL of each compound solution at each concentration was transferred to 750 μL of Growth Medium. In “DMSO alone” control 3 μL of DMSO alone was added to 750 μL of Growth Medium.
After the diluted compounds were mixed well in the Growth Medium, 50 μL of each compound solution in DMSO/Growth Medium was transferred to each well of the 96-plate containing cells in 50 μL of Growth Medium/Nocodazole.
The cells and compounds were incubated for 120 minutes at 37° C., in an atmosphere containing 5% CO2.
3. Fixation and Permeabilization of the Cells
After the cells were incubated with compounds, the cells were spun down at 1,000 rpm for 5 minutes at 4° C. and supernatants were removed by flicking the plates. Cells were then washed with 200 μl of ice cold PBS, spun down again and supernatants removed. Cells were then fixed and permeabilized by addition of 100 μL/well of Fixation and Permeabilization Solution (1× buffer provided in BD Biosciences Cytofix/Cytoperm™ Fixation/Permeabilization kit, Cat. #554714) and incubation for 20 minutes at room temperature. The fixative was then removed by centrifugation (5 minutes at 2,000 rpm), and plates were flicked to remove the fixative and washed twice, each time with 200 μL/well BD Perm/Wash buffer (10× concentrate provided in BD Biosciences Cytofix/Cytoperm™ Fixation/Permeabilization kit, Cat. #554714, 1× buffer prepared by dilution in distilled H2O).
Cells were spun down at 1,000 rpm for 5 minutes at 4° C. Supernatants were removed by flicking the plates. A solution of a primary antibody specific for cdc25cp-Ser198 was prepared by diluting Rabbit cdc25c (Ser198) antibody (Cell Signaling, #9529L) 1:50 in a Fluorescence Activated Cell Sorting (“FACS”) Buffer (2% FBS in PBS). The cell pellets were resuspended in 50 μL of the primary antibody solution. 50 μL of FACS buffer was added to unstained controls. Staining was allowed to proceed overnight at room temperature.
The plates were then washed by addition of 200 μL of FACS Buffer to each well, were centrifuged and the supernatant was removed. […]

Where [3] appears, read: ELISA, CHK2-derived peptide substrate, read-out: PLK1 IC50 (μM) biochemical assay.
[4] abbreviates: read-out: IC50 in biochemical in vitro PLK1 ELISA assay (less than 10 μM).
[5] abbreviates: read-out: IC50 in biochemical ELISA assay (less than 0.01 μM).

T1 sequence (P53350 whole entry): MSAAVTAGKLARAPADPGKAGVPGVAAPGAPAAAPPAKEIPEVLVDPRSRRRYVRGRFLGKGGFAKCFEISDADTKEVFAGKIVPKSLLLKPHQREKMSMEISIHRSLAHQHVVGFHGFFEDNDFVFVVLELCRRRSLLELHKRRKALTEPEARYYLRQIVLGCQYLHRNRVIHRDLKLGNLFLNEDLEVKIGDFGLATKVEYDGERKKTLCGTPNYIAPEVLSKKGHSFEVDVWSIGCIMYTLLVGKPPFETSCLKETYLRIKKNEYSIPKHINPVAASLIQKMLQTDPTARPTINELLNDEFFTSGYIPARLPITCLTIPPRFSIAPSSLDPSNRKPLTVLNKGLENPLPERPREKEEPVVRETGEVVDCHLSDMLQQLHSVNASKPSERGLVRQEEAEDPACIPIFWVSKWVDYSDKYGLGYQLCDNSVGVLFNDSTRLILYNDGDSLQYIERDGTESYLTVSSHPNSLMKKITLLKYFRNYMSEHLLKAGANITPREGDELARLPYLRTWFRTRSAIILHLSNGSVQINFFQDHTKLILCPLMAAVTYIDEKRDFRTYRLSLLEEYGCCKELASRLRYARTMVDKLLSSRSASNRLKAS

Consider `CN1CCN(c2cccc(Nc3ncc(F)c(Nc4ccc5c(c4)NCCO5)n3)c2)CC1` [compound 20, N4-(3,4-dihydro-2H-benzo[b][1,4]oxazin-6-yl)-5-fluoro-N2-(3-(4-methylpiperazin-1-yl)phenyl)pyrimidine-2,4-diamine], for which the results for the IC50 on PLK1 [1] (setting [3]), on PLK1 [1] (setting [4]) and on PLK1 [2] were less than 0.5 µM, less than 10 µM and 0.5 to 5 µM, respectively.
As to `COc1cnc(Nc2cccc(N3CCN(C)CC3)c2)nc1Nc1ccc2c(n1)NCCO2` [compound 52, N4-(3,4-dihydro-2H-pyrido[3,2-b][1,4]oxazin-6-yl)-5-methoxy-N2-(3-(4-methylpiperazin-1-yl)phenyl)pyrimidine-2,4-diamine], the half-inhibitory concentration (IC50) is less than 0.5 µM on PLK1 [1] (setting [3]), less than 10 µM on PLK1 [1] (setting [4]) and 0.5 to 5 µM on PLK1 [2].
Take `C#CCN1C(=O)COc2ccc(Nc3nc(Nc4cccc(N5CCN(C)CC5)c4)ncc3F)nc21` [compound 128, 6-(5-fluoro-2-(3-(4-methylpiperazin-1-yl)phenylamino)pyrimidin-4-ylamino)-4-(prop-2-ynyl)-2H-pyrido[3,2-b][1,4]oxazin-3(4H)-one]: the IC50 at PLK1 [1] (setting [3]) is less than 0.5 µM; on PLK1 [1] (setting [5]) it was less than 0.01 µM; on PLK1 [1] (setting [4]), less than 10 µM; at PLK1 [2], 0.5 to 5 µM.
On to `CN1CCN(c2cccc(Nc3ncc(F)c(Nc4ccc5c(n4)N(C4CCCC4)C(=O)CO5)n3)c2)CC1` [compound 131, 4-cyclopentyl-6-(5-fluoro-2-(3-(4-methylpiperazin-1-yl)phenylamino)pyrimidin-4-ylamino)-2H-pyrido[3,2-b][1,4]oxazin-3(4H)-one], for which the IC50 is 0.5 to 5 µM at PLK1 [1] (setting [3]), less than 10 µM at PLK1 [1] (setting [4]) and not below 10 µM on PLK1 [2].
In the case of `CC(C)c1ccc(N2CCN(C)CC2)cc1Nc1ncc(F)c(Nc2ccc3c(n2)NCCO3)n1` [compound 27, N4-(3,4-dihydro-2H-pyrido[3,2-b][1,4]oxazin-6-yl)-5-fluoro-N2-(2-isopropyl-5-(4-methylpiperazin-1-yl)phenyl)pyrimidine-2,4-diamine], the IC50 at PLK1 [1] (setting [3]) is less than 0.5 µM; on PLK1 [1] (setting [4]) it was less than 10 µM; on PLK1 [2], 0.5 to 5 µM.
For `CCCN1C(=O)COc2ccc(Nc3nc(Nc4ccc(N5CC6CC5CN6C)c(C)c4)ncc3C)nc21` (stereo not drawn) [compound 107, 6-(5-methyl-2-(3-methyl-4-(5-methyl-2,5-diazabicyclo[2.2.1]heptan-2-yl)phenylamino)pyrimidin-4-ylamino)-4-propyl-2H-pyrido[3,2-b][1,4]oxazin-3(4H)-one], the IC50 on PLK1 [1] (setting [3]) was less than 0.5 µM; at PLK1 [1] (setting [4]) it was less than 10 µM; against PLK1 [2] it was 0.5 to 5 µM.
`CN1CCN(c2cccc(Nc3ncc(F)c(Nc4ccc5c(n4)N(CC4CCCCC4)C(=O)CO5)n3)c2)CC1` [compound 110, 4-(cyclohexylmethyl)-6-(5-fluoro-2-(3-(4-methylpiperazin-1-yl)phenylamino)pyrimidin-4-ylamino)-2H-pyrido[3,2-b][1,4]oxazin-3(4H)-one]: the IC50 at PLK1 [1] (setting [3]) was 5 to 10 µM; at PLK1 [1] (setting [4]) it was less than 10 µM; against PLK1 [2] it was not below 10 µM.
For `CCCN1C(=O)COc2ccc(Nc3nc(Nc4ccc(N5CC6CC5CN6C(C)=O)c(C)c4)ncc3C)nc21` (stereo not drawn) [compound 38, 6-(2-(4-(5-acetyl-2,5-diazabicyclo[2.2.1]heptan-2-yl)-3-methylphenyl-amino)-5-methyl-pyrimidin-4-ylamino)-4-propyl-2H-pyrido[3,2-b][1,4]oxazin-3(4H)-one] the same measures were less than 0.5 µM, less than 10 µM and 0.5 to 5 µM.
As to `Cc1cnc(Nc2cccc(N3CCN(C)CC3)c2)nc1Nc1ccc2c(n1)N(Cc1ccccc1)C(=O)CO2` [compound 122, 4-benzyl-6-(5-methyl-2-(3-(4-methylpiperazin-1-yl)phenylamino)pyrimidin-4-ylamino)-2H-pyrido[3,2-b][1,4]oxazin-3(4H)-one], the IC50 was less than 0.5 µM at PLK1 [1] (setting [3]), less than 0.01 µM at PLK1 [1] (setting [5]), less than 10 µM on PLK1 [1] (setting [4]) and 0.5 to 5 µM against PLK1 [2].
Regarding `Cc1cnc(Nc2ccc(N3CCN(C)CC3)cc2)nc1Nc1ccc2c(c1)N(CCCF)C(=O)CO2` [compound 188, 4-(3-fluoropropyl)-6-(5-methyl-2-(4-(4-methylpiperazin-1-yl)phenylamino)pyrimidin-4-ylamino)-2H-benzo[b][1,4]oxazin-3(4H)-one], the half-maximal inhibitory concentration (IC50) was 0.5 to 5 µM on PLK1 [1] (setting [3]), less than 10 µM on PLK1 [1] (setting [4]) and 0.5 to 5 µM against PLK1 [2].
On to `CN1CCN(c2cc(Nc3ncc(F)c(Nc4ccc5c(n4)NCCO5)n3)cc(C(F)(F)F)c2)CC1` [compound 24, N4-(3,4-dihydro-2H-pyrido[3,2-b][1,4]oxazin-6-yl)-5-fluoro-N2-(3-(4-methylpiperazin-1-yl)-5-(trifluoro-methyl)phenyl)pyrimidine-2,4-diamine], for which the IC50 is less than 0.5 µM on PLK1 [1] (setting [3]), less than 10 µM at PLK1 [1] (setting [4]) and not below 10 µM against PLK1 [2].
For `CC(C)Oc1cc(Nc2ncc(F)c(Nc3ccc4c(n3)NC(=O)CO4)n2)cc(N2CCN(C)CC2)c1` [compound 25, 6-(5-fluoro-2-(3-isopropoxy-5-(4-methylpiperazin-1-yl)phenylamino)pyrimidin-4-ylamino)-2H-pyrido[3,2-b][1,4]oxazin-3(4H)-one], the IC50 on PLK1 [1] (setting [3]) is less than 0.5 µM; at PLK1 [1] (setting [5]), less than 0.01 µM; on PLK1 [1] (setting [4]), less than 10 µM; against PLK1 [2], less than 0.5 µM.
Regarding `CC(C)c1ccc(N2CCN(C)CC2)cc1Nc1ncc(F)c(Nc2ccc3c(n2)NC(=O)CO3)n1` [compound 43, 6-(5-fluoro-2-(2-isopropyl-5-(4-methylpiperazin-1-yl)phenylamino)pyrimidin-4-ylamnino)-2H-pyrido[3,2-b][1,4]oxazin-3(4H)-one], the IC50 was less than 0.5 µM on PLK1 [1] (setting [3]), less than 10 µM on PLK1 [1] (setting [4]) and less than 0.5 µM against PLK1 [2].
On to `C#CCN1C(=O)COc2ccc(Nc3nc(Nc4cccc(N5CCN(C)CC5)c4)ncc3C)nc21` [compound 127, 6-(5-methyl-2-(3-(4-methylpiperazin-1-yl)phenylamino)pyrimidin-4-ylamino)-4-(prop-2-ynyl)-2H-pyrido[3,2-b][1,4]oxazin-3(4H)-one], for which the IC50 on PLK1 [1] (setting [3]) is less than 0.5 µM; on PLK1 [1] (setting [5]) it was less than 0.01 µM; on PLK1 [1] (setting [4]), less than 10 µM; at PLK1 [2] it was less than 0.5 µM.
On to `CCN1CCN(c2ccc(Nc3ncc(Cl)c(Nc4ccc5c(c4)N(CC)C(=O)CO5)n3)cc2)CC1` [compound 183, 6-(5-chloro-2-(4-(4-ethylpiperazin-1-yl)phenylamino)pyrimidin-4-ylamino)-4-ethyl-2H-benzo[b][1,4]oxazin-3(4H)-one], for which the IC50 is 0.5 to 5 µM at PLK1 [1] (setting [3]), less than 10 µM on PLK1 [1] (setting [4]) and 0.5 to 5 µM at PLK1 [2].
Turning to `Cc1cc(Nc2ncc(C)c(Nc3ccc4c(n3)N(C3CCCC3)C(=O)CO4)n2)ccc1N1CCN(C)CC1` [compound 117, 4-cyclopentyl-6-(5-methyl-2-(3-methyl-4-(4-methylpiperazin-1-yl)phenylamino)pyrimidin-4-ylamino)-2H-pyrido[3,2-b][1,4]oxazin-3(4H)-one], the IC50 at PLK1 [1] (setting [3]) and against PLK1 [2] was not below 10 µM throughout.
